Test results taken from ChEMBL document CHEMBL1153520, “A multivalent approach to the design and discovery of orally efficacious 5-HT4 receptor agonists” (J Med Chem, 2009).
Active and inactive are the calls of the source. The rule behind the calls is not given here.

How the values were obtained:
[1] = molecular target: T1, 5-hydroxytryptamine receptor 4 (Homo sapiens, UniProt Q13639); assay: Displacement of [H]GR-113808 from human 5HT4C receptor expressed in HEK293 cells by liquid scintillation counting; assay type: cell-based
T1 sequence (Q13639 whole entry): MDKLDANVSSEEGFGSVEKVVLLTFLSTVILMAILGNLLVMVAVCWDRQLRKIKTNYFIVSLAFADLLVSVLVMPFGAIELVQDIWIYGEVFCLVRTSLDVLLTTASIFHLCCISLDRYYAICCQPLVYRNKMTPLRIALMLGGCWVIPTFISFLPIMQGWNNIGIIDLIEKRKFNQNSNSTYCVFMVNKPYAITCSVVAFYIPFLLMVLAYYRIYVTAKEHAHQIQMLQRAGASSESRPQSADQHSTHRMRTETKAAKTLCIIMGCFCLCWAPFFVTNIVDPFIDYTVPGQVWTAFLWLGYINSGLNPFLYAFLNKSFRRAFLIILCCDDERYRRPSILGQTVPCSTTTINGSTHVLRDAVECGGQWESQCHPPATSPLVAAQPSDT

Homo sapiens = organism: Homo sapiens; assay: Selectivity ratio of Ki for human 5HT3A receptor to Ki for human 5HT4C receptor
[2] = molecular target: T1, 5-hydroxytryptamine receptor 4; assay: Agonist activity at human 5HT4C receptor expressed in HEK293 cells assessed as accumulation of cAMP by flash plate adenylyl cyclase activation assay; assay type: functional, cell-based
[3] = molecular target: T1, 5-hydroxytryptamine receptor 4; assay: Intrinsic activity at human 5HT4C receptor expressed in HEK293 cells assessed as accumulation of cAMP by flash plate adenylyl cyclase activation assay relative to serotonin; assay type: functional, cell-based
hERG (KCNH2) = hERG (KCNH2) (Homo sapiens, UniProt Q12809); assay: Inhibition of human ERG potassium channel expressed in CHO-K1 cells at 3 uM by whole cell voltage clamp assay; assay type: cell-based; conditions: CHO-K1 cells expressing human ERG potassium channel
Sequence of hERG (KCNH2) (Q12809 whole entry): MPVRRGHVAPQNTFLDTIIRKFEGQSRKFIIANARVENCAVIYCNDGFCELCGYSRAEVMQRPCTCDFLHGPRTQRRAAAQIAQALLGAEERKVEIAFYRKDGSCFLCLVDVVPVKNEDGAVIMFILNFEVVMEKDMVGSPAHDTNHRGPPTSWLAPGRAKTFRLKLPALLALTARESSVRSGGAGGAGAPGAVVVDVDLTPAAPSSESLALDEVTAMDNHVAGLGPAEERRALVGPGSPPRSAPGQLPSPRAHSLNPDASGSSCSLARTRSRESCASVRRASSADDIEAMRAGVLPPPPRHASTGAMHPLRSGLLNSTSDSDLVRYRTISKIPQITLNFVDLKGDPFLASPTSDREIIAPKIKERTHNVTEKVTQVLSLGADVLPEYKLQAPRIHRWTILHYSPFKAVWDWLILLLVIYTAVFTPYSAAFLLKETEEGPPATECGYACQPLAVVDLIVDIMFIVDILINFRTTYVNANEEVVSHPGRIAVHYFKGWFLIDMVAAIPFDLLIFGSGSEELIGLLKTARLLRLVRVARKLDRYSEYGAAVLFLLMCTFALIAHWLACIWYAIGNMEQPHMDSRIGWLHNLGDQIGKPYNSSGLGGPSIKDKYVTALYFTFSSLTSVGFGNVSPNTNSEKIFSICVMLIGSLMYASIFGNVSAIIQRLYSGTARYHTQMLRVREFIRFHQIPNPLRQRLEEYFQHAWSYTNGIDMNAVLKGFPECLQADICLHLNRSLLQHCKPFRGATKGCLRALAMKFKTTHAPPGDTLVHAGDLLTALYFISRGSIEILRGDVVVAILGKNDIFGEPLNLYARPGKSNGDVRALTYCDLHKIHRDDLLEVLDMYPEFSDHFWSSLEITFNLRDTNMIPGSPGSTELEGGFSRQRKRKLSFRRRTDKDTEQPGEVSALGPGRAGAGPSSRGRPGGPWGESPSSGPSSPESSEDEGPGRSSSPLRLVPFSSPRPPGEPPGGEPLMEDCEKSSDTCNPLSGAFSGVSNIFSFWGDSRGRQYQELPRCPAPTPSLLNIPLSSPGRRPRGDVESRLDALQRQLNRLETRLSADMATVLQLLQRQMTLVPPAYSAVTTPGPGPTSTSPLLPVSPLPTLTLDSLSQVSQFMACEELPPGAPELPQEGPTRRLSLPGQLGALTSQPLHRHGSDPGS

[4] = Permeability across human Caco-2 cells assessed as permeability coefficient; assay type: ADME, cell-based; conditions: read-out: permeability
[5] = AUC (0 to t) in Sprague-Dawley rat at 5 mg/kg, po; assay type: ADME, organism-based; parameters: dose 5 mg/kg, route oral; conditions: plasma
[6] = Cmax in Sprague-Dawley rat at 5 mg/kg, po; assay type: ADME, organism-based; parameters: dose 5 mg/kg, route oral; conditions: in vivo
[7] = Half life in Sprague-Dawley rat at 5 mg/kg, po; assay type: ADME, organism-based; parameters: dose 5 mg/kg, route oral; conditions: in vivo
[8] = Oral bioavailability in Sprague-Dawley rat at 5 mg/kg, po; assay type: ADME, organism-based; conditions: in vivo
[9] = Cmax in Beagle dog at 2 mg/kg, po; assay type: ADME, organism-based, Canis lupus familiaris; parameters: dose 2 mg/kg, route oral; conditions: in vivo
[10] = Oral bioavailability in Beagle dog at 2 mg/kg, po; assay type: ADME, organism-based, Canis lupus familiaris; conditions: in vivo
[11] = molecular target: T2, 5-hydroxytryptamine receptor 1A (Homo sapiens) (UniProt P08908); assay: Inhibition of 5HT1A receptor at 10 uM
T2 sequence (whole entry): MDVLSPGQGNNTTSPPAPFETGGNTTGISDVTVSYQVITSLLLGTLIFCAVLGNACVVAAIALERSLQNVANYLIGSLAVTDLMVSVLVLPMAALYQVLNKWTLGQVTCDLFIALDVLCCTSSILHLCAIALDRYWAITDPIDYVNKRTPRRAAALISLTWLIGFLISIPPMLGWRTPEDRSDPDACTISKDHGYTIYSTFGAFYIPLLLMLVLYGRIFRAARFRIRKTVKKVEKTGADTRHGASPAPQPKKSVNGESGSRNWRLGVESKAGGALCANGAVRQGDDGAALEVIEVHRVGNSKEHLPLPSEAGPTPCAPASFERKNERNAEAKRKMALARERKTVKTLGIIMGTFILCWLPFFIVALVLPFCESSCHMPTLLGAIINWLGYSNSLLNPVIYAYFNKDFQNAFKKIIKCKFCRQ

[12] = molecular target: T3, 5-hydroxytryptamine receptor 2C (Homo sapiens) (UniProt P28335); assay: Inhibition of 5HT1C receptor at 10 uM
T3 sequence (whole entry): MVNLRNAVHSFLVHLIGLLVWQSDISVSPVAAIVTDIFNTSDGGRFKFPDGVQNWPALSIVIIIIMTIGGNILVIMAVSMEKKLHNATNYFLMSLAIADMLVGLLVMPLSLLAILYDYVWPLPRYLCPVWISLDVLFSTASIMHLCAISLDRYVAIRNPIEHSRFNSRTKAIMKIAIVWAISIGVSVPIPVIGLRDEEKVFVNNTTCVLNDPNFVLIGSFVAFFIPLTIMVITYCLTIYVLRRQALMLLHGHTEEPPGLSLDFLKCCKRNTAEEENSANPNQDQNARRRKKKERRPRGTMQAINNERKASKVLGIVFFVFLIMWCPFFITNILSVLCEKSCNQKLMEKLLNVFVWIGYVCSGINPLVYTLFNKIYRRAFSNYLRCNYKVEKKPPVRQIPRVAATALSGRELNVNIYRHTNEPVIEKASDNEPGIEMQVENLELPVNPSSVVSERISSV

[13] = molecular target: 5-hydroxytryptamine receptor 1D (Homo sapiens) (UniProt P28221); assay: Inhibition of 5HT1D receptor at 10 uM
Sequence of 5-hydroxytryptamine receptor 1D (Homo sapiens) (P28221 whole entry): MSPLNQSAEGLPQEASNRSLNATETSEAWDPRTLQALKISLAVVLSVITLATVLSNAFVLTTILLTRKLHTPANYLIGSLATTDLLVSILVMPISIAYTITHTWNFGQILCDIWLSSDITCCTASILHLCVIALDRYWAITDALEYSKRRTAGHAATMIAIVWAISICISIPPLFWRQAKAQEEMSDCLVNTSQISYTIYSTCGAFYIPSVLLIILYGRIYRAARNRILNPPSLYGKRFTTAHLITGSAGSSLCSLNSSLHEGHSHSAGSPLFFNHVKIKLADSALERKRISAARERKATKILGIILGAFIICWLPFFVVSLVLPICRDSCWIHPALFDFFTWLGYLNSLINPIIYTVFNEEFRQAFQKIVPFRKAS

[14] = molecular target: 5-hydroxytryptamine receptor 2A (Homo sapiens) (UniProt P28223); assay: Inhibition of 5HT2A receptor at 10 uM
Sequence of 5-hydroxytryptamine receptor 2A (Homo sapiens) (P28223 whole entry): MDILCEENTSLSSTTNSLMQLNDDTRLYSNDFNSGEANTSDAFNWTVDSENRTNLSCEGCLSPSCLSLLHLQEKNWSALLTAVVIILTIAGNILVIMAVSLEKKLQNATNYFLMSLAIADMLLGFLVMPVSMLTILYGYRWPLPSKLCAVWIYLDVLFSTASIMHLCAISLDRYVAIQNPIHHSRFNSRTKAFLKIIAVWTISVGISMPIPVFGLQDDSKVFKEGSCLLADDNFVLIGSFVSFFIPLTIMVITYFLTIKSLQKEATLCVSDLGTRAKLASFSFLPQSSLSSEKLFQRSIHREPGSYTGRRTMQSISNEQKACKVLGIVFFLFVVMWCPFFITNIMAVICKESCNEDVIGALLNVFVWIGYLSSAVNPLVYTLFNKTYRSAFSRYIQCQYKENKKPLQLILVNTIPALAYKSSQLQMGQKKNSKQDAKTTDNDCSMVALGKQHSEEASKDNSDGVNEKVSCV

[15] = molecular target: 5-hydroxytryptamine receptor 2B (Homo sapiens) (UniProt P41595); assay: Inhibition of 5HT2B receptor at 10 uM
Sequence of 5-hydroxytryptamine receptor 2B (Homo sapiens) (P41595 whole entry): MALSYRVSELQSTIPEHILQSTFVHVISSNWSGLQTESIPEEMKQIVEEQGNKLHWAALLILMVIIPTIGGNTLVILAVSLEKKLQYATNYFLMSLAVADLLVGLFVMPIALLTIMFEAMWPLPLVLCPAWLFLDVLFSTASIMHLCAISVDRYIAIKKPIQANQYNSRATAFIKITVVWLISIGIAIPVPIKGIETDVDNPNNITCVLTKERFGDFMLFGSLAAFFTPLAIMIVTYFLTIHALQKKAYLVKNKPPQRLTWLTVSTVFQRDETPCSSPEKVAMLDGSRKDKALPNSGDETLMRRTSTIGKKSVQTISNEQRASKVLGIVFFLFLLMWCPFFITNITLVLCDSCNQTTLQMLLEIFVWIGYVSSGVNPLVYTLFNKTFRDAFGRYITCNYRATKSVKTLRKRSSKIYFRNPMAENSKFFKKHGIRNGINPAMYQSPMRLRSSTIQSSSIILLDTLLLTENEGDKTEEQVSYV

[16] = molecular target: T3, 5-hydroxytryptamine receptor 2C (Homo sapiens); assay: Inhibition of 5HT2C receptor at 10 uM
[17] = molecular target: 5-hydroxytryptamine receptor 5A (Homo sapiens) (UniProt P47898); assay: Inhibition of 5HT5A receptor at 10 uM
Sequence of 5-hydroxytryptamine receptor 5A (Homo sapiens) (P47898 whole entry): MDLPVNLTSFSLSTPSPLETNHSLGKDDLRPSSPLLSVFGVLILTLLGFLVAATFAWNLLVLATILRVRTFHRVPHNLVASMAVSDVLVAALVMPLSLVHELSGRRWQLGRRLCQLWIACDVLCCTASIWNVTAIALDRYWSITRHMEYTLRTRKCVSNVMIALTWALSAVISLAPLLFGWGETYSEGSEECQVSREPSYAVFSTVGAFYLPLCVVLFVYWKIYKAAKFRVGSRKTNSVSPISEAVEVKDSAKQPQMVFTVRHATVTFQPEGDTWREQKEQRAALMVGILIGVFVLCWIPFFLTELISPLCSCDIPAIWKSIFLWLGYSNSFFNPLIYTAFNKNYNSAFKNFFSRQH

[18] = molecular target: 5-hydroxytryptamine receptor 6 (Homo sapiens) (UniProt P50406); assay: Inhibition of 5HT6 receptor at 10 uM
Sequence of 5-hydroxytryptamine receptor 6 (Homo sapiens) (P50406 whole entry): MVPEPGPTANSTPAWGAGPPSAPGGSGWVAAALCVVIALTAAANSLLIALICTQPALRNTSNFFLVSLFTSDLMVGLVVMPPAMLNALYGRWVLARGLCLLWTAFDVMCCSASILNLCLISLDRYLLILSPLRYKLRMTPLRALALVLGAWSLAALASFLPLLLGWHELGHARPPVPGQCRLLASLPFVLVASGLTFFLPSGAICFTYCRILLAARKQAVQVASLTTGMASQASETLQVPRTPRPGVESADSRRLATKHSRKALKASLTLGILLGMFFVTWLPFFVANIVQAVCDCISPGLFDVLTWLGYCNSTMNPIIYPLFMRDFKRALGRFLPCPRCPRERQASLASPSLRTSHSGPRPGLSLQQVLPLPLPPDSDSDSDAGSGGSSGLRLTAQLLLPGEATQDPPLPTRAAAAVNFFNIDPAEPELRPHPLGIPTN

[19] = molecular target: 5-hydroxytryptamine receptor 7 (Homo sapiens) (UniProt P34969); assay: Inhibition of 5HT7 receptor at 10 uM
Sequence of 5-hydroxytryptamine receptor 7 (Homo sapiens) (P34969 whole entry): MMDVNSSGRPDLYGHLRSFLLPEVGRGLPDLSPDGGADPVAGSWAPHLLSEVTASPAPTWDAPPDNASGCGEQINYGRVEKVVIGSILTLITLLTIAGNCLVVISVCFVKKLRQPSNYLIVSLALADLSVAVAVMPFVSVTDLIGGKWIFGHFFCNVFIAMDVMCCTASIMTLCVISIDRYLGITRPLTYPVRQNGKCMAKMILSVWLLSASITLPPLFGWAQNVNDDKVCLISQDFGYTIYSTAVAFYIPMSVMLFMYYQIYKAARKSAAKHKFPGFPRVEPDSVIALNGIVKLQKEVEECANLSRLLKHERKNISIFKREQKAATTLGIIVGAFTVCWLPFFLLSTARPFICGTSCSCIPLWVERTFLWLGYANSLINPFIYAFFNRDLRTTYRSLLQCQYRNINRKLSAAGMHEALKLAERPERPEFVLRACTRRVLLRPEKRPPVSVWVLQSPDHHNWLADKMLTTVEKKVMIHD

Cavia porcellus [20] = assay: Induction of colon longitudinal muscle contraction in sc dosed Duncan Hartley guinea pig; assay type: functional, organism-based; conditions: Muscle tissue
Rattus norvegicus [21] = assay: Induction of 5HT4 receptor-mediated relaxation of esophagus in iv dosed anesthetized Sprague-Dawley rat by digital sonomicrometry; assay type: functional
Rattus norvegicus [22] = assay: Induction of 5HT4 receptor-mediated relaxation of esophagus in intraduodenal dosed anesthetized Sprague-Dawley rat by digital sonomicrometry; assay type: functional, organism-based
Rattus norvegicus [23] = assay: Induction of 5HT4 receptor-mediated relaxation of esophagus in anesthetized Sprague-Dawley rat at 3 mg/kg, intraduodenally by digital sonomicrometry; assay type: functional, organism-based; parameters: dose 3 mg/kg
Cavia porcellus [24] = assay: Increase in colonic transit in Duncan Hartley guinea pig colonic transit model assessed as prokinetic activity at 3 mg/kg, sc relative to vehicle treated control; assay type: functional, organism-based; parameters: dose 3 mg/kg
in vitro = conditions: rat, liver microsomes

Question: For `CC(C)n1c(=O)c(C(=O)N[C@H]2C[C@H]3CC[C@@H](C2)N3C[C@@H](O)CN2CCN(S(C)(=O)=O)CC2)cc2ccccc21`, which Ki [1] is on record?
Answer: 12.6 nM

Question: What about the Ratio Ki (Homo sapiens) of the same molecule?
Answer: 7400

Question: And the EC50 [2]?
Answer: 0.398 nM

Question: What about the Intrinsic activity [3] of the same molecule?
Answer: 94%

Question: What about the inhibition at 3 µM (hERG (KCNH2)) of the same molecule?
Answer: 4%

Question: What about the Papp [4] of the same molecule?
Answer: 14 ×10⁻⁶ cm/s

Question: What about the AUC(0-t) [5] of the same molecule?
Answer: 200 ng·h/mL

Question: And the Cmax [6]?
Answer: 31 ng/mL

Question: What about the half-life [7] of the same molecule?
Answer: 5.2 h

Question: And the bioavailability [8]?
Answer: 20%

Question: And the Cmax [9]?
Answer: 320 ng/mL

Question: And the bioavailability [10]?
Answer: 63%

Question: And the inhibition [11]?
Answer: < 50%

Question: And the inhibition [12]?
Answer: < 50%

Question: And the inhibition [13]?
Answer: < 50%

Question: What about the inhibition [14] of the same molecule?
Answer: < 50%

Question: And the inhibition [15]?
Answer: < 50%

Question: What about the inhibition [16] of the same molecule?
Answer: < 50%

Question: What about the inhibition [17] of the same molecule?
Answer: < 50%

Question: And the inhibition [18]?
Answer: < 50%

Question: What about the inhibition [19] of the same molecule?
Answer: < 50%

Question: And the EC50 (Cavia porcellus [20])?
Answer: 2.51 nM

Question: What about the Activity (Rattus norvegicus [21]) of the same molecule?
Answer: Dose-dependent effect

Question: What about the ED50 (Rattus norvegicus [21]) of the same molecule?
Answer: 0.016 mg/kg

Question: And the Activity (Rattus norvegicus [22])?
Answer: Dose-dependent effect

Question: What about the Activity (Rattus norvegicus [23]) of the same molecule?
Answer: Active

Question: What about the Activity (Cavia porcellus [24]) of the same molecule?
Answer: Active

Question: And the half-life (in vitro)?
Answer: > 1.5 h
